{"source": "paper PMC11358582", "about": "“Discovery of a potential bladder cancer inhibitor CHNQD-01281 by regulating EGFR and promoting infiltration of cytotoxic T cells” (Marine Life Science & Technology, 2024)", "experiment_in_all_cases": "MTT cell proliferation assay", "key": {"[1]": {"system": "human hepatocyte cell line L-02", "format": "cell-based", "settings": "L-02, MTT", "experimental": "(§1) Human tumor cell lines Eca-109, BEL-7402, BxPC-3, HCT-116, HT-29, T24, HCT-8, SGC-7901, DLD-1, TE-1, BT-549, MGC-803 and human hepatocyte cell line L-02 were cultured in Roswell Park Memorial Institute (RPMI) 1640. HuH-7 and SW-480 were cultured in Dulbecco’s modified Eagle’s medium (DMEM). J82, HepG2, Hela, U87 were cultured in Minimum Essential Medium (MEM). Murine bladder cancer cell line, MB49, was cultured in DMEM. The above-mentioned culture medium was provided by GIBCO (Grand Island, USA), contained 10% fetal bovine serum (PAN, Germany), 10 mg/mL of streptomycin, and 10 kU/mL penicillin (Beyotime, China).\n(§2) Cells were seeded in 96-well plates and incubated with indicated concentrations of CHNQD-01281 for indicated periods. Next, medium was discarded and MTT (5 mg/mL) was added to each well. The cells were incubated at 37 °C for another 4 h. After that, supernatant was discarded, and DMSO was added and incubated at 37 °C for 15 min. Finally, absorbance was measured at 570 nm (Molecular Devices, USA).\nThus, the bladder cancer cell lines J82 and T24 were further investigated and treated by CHNQD-01281 under gradient concentrations (0.031−1.00 µmol/L) and times (24, 72 and 120 h) to measure proliferation activities (Fig. 2B). However, the inhibition of T24 or J82 cell lines by CHNQD-01281 was less than 50% even at the highest concentration of 1 µmol/L for 24 h. […] Therefore, CHNQD-01281 has a higher selectivity index compared to BFA."}, "SW-480 cells": {"system": "SW-480 cells", "format": "cell-based, human", "experimental": "as §1, §2\n(§3) To investigate whether CHNQD-01281 had selective inhibitory effect on cancer cell lines, a variety of human tumor cell lines were assayed by MTT, such as bladder cancer cell lines (J82 and T24), colorectal cancer cell lines (HCT-116, HT-29, HCT-8, DLD-1 and SW-480), cervical cancer cell line (Hela), esophageal cancer cell lines (TE-1 and Eca-109), breast cancer cell line (BT-549), gastric carcinoma cell lines (MGC-803 and SGC-7901), glioma cell line (U87), pancreatic carcinoma cell line (BxPC-3) and hepatocellular carcinoma cell lines (Hep G2, BEL-7402 and HuH-7) (Fig. 2A)."}, "BxPC-3 cells": {"system": "BxPC-3 cells", "format": "cell-based, human", "experimental": "as §1, §2, §3"}, "HT-29 cells": {"system": "HT-29 cells", "format": "cell-based, human", "experimental": "as §1, §2, §3"}, "U87 cells": {"system": "U87 cells", "format": "cell-based, human", "experimental": "as §1, §2, §3"}, "SGC-7901 cells": {"system": "SGC-7901 cells", "format": "cell-based, human", "experimental": "as §1, §2, §3"}, "TE-1 cells": {"system": "TE-1 cells", "format": "cell-based, human", "experimental": "as §1, §2, §3"}, "HCT-8 cells": {"system": "HCT-8 cells", "format": "cell-based, human", "experimental": "as §1, §2, §3"}, "MGC-803 cells": {"system": "MGC-803 cells", "format": "cell-based, human", "experimental": "as §1, §2, §3"}, "Eca-109 cells": {"system": "Eca-109 cells", "format": "cell-based, human", "experimental": "as §1, §2, §3"}, "BEL-7402 cells": {"system": "BEL-7402 cells", "format": "cell-based, human", "experimental": "as §1, §2, §3"}, "BT-549 cells": {"system": "BT-549 cells", "format": "cell-based, human", "experimental": "as §1, §2, §3"}, "HCT-116 cells": {"system": "HCT-116 cells", "format": "cell-based, human", "experimental": "as §1, §2, §3"}, "DLD-1 cells": {"system": "DLD-1 cells", "format": "cell-based, human", "experimental": "as §1, §2, §3"}, "J82 cells": {"system": "J82 cells", "format": "cell-based, human", "experimental": "as §1, §2, §3"}, "T24 cells": {"system": "T24 cells", "format": "cell-based, human", "experimental": "as §1, §2, §3"}, "Hep G2 cells": {"system": "Hep G2 cells", "format": "cell-based, human", "experimental": "as §1, §2, §3"}, "Hela cells": {"system": "Hela cells", "format": "cell-based, human", "experimental": "as §1, §2, §3"}, "HuH-7 cells": {"system": "HuH-7 cells", "format": "cell-based, human", "experimental": "as §1, §2, §3"}}, "note": "pIC50: −log10 of the molar value."}
{"smiles": "C[C@H]1CCC/C=C/[C@@H]2C[C@H](O)C[C@H]2[C@H](OC(=O)/C=C/c2cccnc2)/C=C/C(=O)O1", "note": "[CHNQD-01281, Brefeldin A 4-O-3-(pyridin-3-yl) acrylate]", "values": [{"measurement": "IC90", "setting": "[1]", "value": 2520, "unit": "nM"}, {"measurement": "pIC50", "setting": "[1]; 72 h", "value": 5.94}, {"measurement": "IC90", "setting": "SW-480 cells; Homo sapiens, SW480, SW-480, MTT", "value": "> 1000", "unit": "nM"}, {"measurement": "pIC50", "setting": "SW-480 cells; Homo sapiens, SW480, SW-480, MTT, 72 h", "value": 6.14}, {"measurement": "SI (selectivity index)", "setting": "SW-480 cells; L-02 versus SW-480", "value": 1.59}, {"measurement": "IC90", "setting": "BxPC-3 cells; Homo sapiens, BxPC-3, MTT", "value": 350, "unit": "nM"}, {"measurement": "pIC50", "setting": "BxPC-3 cells; Homo sapiens, BxPC-3, MTT, 72 h", "value": 6.74}, {"measurement": "SI (selectivity index)", "setting": "BxPC-3 cells; L-02 versus BxPC-3", "value": 6.44}, {"measurement": "IC90", "setting": "HT-29 cells; Homo sapiens, HT-29, MTT", "value": "> 1000", "unit": "nM"}, {"measurement": "pIC50", "setting": "HT-29 cells; Homo sapiens, HT-29, MTT, 72 h", "value": 6.43}, {"measurement": "SI (selectivity index)", "setting": "HT-29 cells; L-02 versus HT-29", "value": 3.14}, {"measurement": "IC90", "setting": "U87 cells; Homo sapiens, U-87 MG, U87, MTT", "value": "> 1000", "unit": "nM"}, {"measurement": "pIC50", "setting": "U87 cells; Homo sapiens, U-87 MG, U87, MTT, 72 h", "value": 6.19}, {"measurement": "SI (selectivity index)", "setting": "U87 cells; L-02 versus U87", "value": 1.78}, {"measurement": "IC90", "setting": "SGC-7901 cells; Homo sapiens, SGC-7901, MTT", "value": 750, "unit": "nM"}, {"measurement": "pIC50", "setting": "SGC-7901 cells; Homo sapiens, SGC-7901, MTT, 72 h", "value": 6.47}, {"measurement": "SI (selectivity index)", "setting": "SGC-7901 cells; L-02 versus SGC-7901", "value": 3.41}, {"measurement": "IC90", "setting": "TE-1 cells; Homo sapiens, TE-1, MTT", "value": "> 1000", "unit": "nM"}, {"measurement": "pIC50", "setting": "TE-1 cells; Homo sapiens, TE-1, MTT, 72 h", "value": 6.21}, {"measurement": "SI (selectivity index)", "setting": "TE-1 cells; L-02 versus TE-1", "value": 1.87}, {"measurement": "IC90", "setting": "HCT-8 cells; Homo sapiens, HCT-8, MTT", "value": 440, "unit": "nM"}, {"measurement": "pIC50", "setting": "HCT-8 cells; Homo sapiens, HCT-8, MTT, 72 h", "value": 6.77}, {"measurement": "SI (selectivity index)", "setting": "HCT-8 cells; L-02 versus HCT-8", "value": 6.82}, {"measurement": "IC90", "setting": "MGC-803 cells; Homo sapiens, MGC-803, MTT", "value": "> 1000", "unit": "nM"}, {"measurement": "pIC50", "setting": "MGC-803 cells; Homo sapiens, MGC-803, MTT, 72 h", "value": 6.16}, {"measurement": "SI (selectivity index)", "setting": "MGC-803 cells; L-02 versus MGC-803", "value": 1.68}, {"measurement": "IC90", "setting": "Eca-109 cells; Homo sapiens, Eca-109, MTT", "value": "> 1000", "unit": "nM"}, {"measurement": "pIC50", "setting": "Eca-109 cells; Homo sapiens, Eca-109, MTT, 72 h", "value": 6.27}, {"measurement": "SI (selectivity index)", "setting": "Eca-109 cells; L-02 versus Eca-109", "value": 2.15}, {"measurement": "IC90", "setting": "BEL-7402 cells; Homo sapiens, BEL-7402, MTT", "value": 820, "unit": "nM"}, {"measurement": "pIC50", "setting": "BEL-7402 cells; Homo sapiens, BEL-7402, MTT, 72 h", "value": 6.59}, {"measurement": "SI (selectivity index)", "setting": "BEL-7402 cells; L-02 versus BEL-7402", "value": 4.46}, {"measurement": "IC90", "setting": "BT-549 cells; Homo sapiens, BT-549, MTT", "value": "> 1000", "unit": "nM"}, {"measurement": "pIC50", "setting": "BT-549 cells; Homo sapiens, BT-549, MTT, 72 h", "value": 6.19}, {"measurement": "SI (selectivity index)", "setting": "BT-549 cells; L-02 versus BT-549", "value": 1.81}, {"measurement": "IC90", "setting": "HCT-116 cells; Homo sapiens, HCT-116, MTT", "value": 640, "unit": "nM"}, {"measurement": "pIC50", "setting": "HCT-116 cells; Homo sapiens, HCT-116, MTT, 72 h", "value": 6.46}, {"measurement": "SI (selectivity index)", "setting": "HCT-116 cells; L-02 versus HCT-116", "value": 3.31}, {"measurement": "IC90", "setting": "DLD-1 cells; Homo sapiens, DLD-1, MTT", "value": 640, "unit": "nM"}, {"measurement": "pIC50", "setting": "DLD-1 cells; Homo sapiens, DLD-1, MTT, 72 h", "value": 6.47}, {"measurement": "SI (selectivity index)", "setting": "DLD-1 cells; L-02 versus DLD-1", "value": 3.41}, {"measurement": "inhibition at 1 µM", "setting": "J82 cells; Homo sapiens, J82, 1 µmol/L (highest concentration), 24 h", "value": "< 50", "unit": "%"}, {"measurement": "IC90", "setting": "J82 cells; Homo sapiens, J82, MTT", "value": 400, "unit": "nM"}, {"measurement": "pIC50", "setting": "J82 cells; Homo sapiens, J82, MTT, 72 h", "value": 7.09}, {"measurement": "SI (selectivity index)", "setting": "J82 cells; L-02 versus J82", "value": 14.32}, {"measurement": "inhibition at 0.125 µM", "setting": "T24 cells; Homo sapiens, T-24, T24, 0.125 µmol/L, 120 h, read-out: inhibition of growth", "value": "~100", "unit": "%"}, {"measurement": "inhibition at 1 µM", "setting": "T24 cells; Homo sapiens, T-24, T24, 1 µmol/L (highest concentration), 24 h", "value": "< 50", "unit": "%"}, {"measurement": "IC90", "setting": "T24 cells; Homo sapiens, T-24, T24, MTT", "value": 300, "unit": "nM"}, {"measurement": "pIC50", "setting": "T24 cells; Homo sapiens, T-24, T24, MTT, 72 h", "value": 7.10}, {"measurement": "SI (selectivity index)", "setting": "T24 cells; L-02 versus T24", "value": 14.68}, {"measurement": "IC90", "setting": "Hep G2 cells; Homo sapiens, HepG2, Hep G2, MTT", "value": "> 1000", "unit": "nM"}, {"measurement": "pIC50", "setting": "Hep G2 cells; Homo sapiens, HepG2, Hep G2, MTT, 72 h", "value": 6.38}, {"measurement": "SI (selectivity index)", "setting": "Hep G2 cells; L-02 versus Hep G2", "value": 2.76}, {"measurement": "IC90", "setting": "Hela cells; Homo sapiens, Hela, MTT", "value": 780, "unit": "nM"}, {"measurement": "pIC50", "setting": "Hela cells; Homo sapiens, Hela, MTT, 72 h", "value": 6.72}, {"measurement": "SI (selectivity index)", "setting": "Hela cells; L-02 versus Hela", "value": 6.11}, {"measurement": "IC90", "setting": "HuH-7 cells; Homo sapiens, HuH-7, MTT", "value": "> 1000", "unit": "nM"}, {"measurement": "pIC50", "setting": "HuH-7 cells; Homo sapiens, HuH-7, MTT, 72 h", "value": 6.29}, {"measurement": "SI (selectivity index)", "setting": "HuH-7 cells; L-02 versus HuH-7", "value": 2.27}]}
